Assay results as given in patent US9809598B2 (Merck Patent GmbH, priority 2014, dated 2017).

How the values were obtained:
[1] = target: T1, PARP-1 (Homo sapiens, UniProt P09874); assay: PARP-1 autoparsylation assay (HTRF); assay type: biochemical; details: His-tagged Parp-1, autoparsylation HTRF
T1 construct: purchased Enzo Life Sciences GmbH, Lörrach, Germany
Outline: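 HTRF emission ratio reports biotin-ADP-ribose self-transfer onto His-tagged PARP-1, with biotinylated NAD/NAD as co-substrate, sensed via cryptate anti-His and Xlent-streptavidin.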

[2] = target: T2, TNKS1 (Homo sapiens, UniProt O95271); assay: TNKS1 activity ELISA (autoparsylation assay); assay type: biochemical; details: GST-tagged Tnks-1 (1023-1327 aa)
T2 construct: GST-tagged Tnks-1 (1023-1327 aa, prepared in-house); made in house
T2 sequence (O95271 1023-1327): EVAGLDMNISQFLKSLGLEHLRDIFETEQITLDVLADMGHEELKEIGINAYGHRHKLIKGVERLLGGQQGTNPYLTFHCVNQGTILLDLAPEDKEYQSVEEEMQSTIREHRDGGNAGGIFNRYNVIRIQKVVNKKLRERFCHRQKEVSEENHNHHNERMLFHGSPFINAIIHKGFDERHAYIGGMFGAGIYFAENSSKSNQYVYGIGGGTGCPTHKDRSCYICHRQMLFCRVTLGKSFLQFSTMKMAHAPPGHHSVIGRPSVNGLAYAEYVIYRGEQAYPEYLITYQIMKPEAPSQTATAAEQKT
Outline: (§1)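 Autoparsylation ELISA: biotinylated NAD serves as co-substrate for plate-bound GST-TNKS1/TNKS2, incubated with test compounds. Readout is HRP luminescence after streptavidin-HRP binding, referenced to the no-inhibitor reaction, from which IC50 values are derived.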

[3] = target: T3, TNKS2 (Homo sapiens, UniProt Q9H2K2); assay: TNKS2 activity ELISA (autoparsylation assay); assay type: biochemical; details: GST-tagged Tnks-2 (873-1166 aa); read-out: IC50 [M] TNKS2 ELISA
T3 construct: GST-tagged Tnks-2 (873-1166 aa, prepared in-house); made in house
T3 sequence (Q9H2K2 873-1166): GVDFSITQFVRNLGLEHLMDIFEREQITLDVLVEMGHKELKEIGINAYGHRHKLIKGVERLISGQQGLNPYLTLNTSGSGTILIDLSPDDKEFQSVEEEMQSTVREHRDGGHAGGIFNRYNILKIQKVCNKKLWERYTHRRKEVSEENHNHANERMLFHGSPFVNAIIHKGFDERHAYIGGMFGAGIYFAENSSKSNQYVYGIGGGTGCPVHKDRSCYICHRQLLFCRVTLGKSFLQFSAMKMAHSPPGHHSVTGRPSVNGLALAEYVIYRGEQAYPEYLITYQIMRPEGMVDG
Outline: as §1

[4] = tested on: Tankyrases; details: read-out: EC50 [M] TNKS cellular assay; DLD1 cells, 24 hours, Axin2 increase

T1 sequence (P09874 whole entry): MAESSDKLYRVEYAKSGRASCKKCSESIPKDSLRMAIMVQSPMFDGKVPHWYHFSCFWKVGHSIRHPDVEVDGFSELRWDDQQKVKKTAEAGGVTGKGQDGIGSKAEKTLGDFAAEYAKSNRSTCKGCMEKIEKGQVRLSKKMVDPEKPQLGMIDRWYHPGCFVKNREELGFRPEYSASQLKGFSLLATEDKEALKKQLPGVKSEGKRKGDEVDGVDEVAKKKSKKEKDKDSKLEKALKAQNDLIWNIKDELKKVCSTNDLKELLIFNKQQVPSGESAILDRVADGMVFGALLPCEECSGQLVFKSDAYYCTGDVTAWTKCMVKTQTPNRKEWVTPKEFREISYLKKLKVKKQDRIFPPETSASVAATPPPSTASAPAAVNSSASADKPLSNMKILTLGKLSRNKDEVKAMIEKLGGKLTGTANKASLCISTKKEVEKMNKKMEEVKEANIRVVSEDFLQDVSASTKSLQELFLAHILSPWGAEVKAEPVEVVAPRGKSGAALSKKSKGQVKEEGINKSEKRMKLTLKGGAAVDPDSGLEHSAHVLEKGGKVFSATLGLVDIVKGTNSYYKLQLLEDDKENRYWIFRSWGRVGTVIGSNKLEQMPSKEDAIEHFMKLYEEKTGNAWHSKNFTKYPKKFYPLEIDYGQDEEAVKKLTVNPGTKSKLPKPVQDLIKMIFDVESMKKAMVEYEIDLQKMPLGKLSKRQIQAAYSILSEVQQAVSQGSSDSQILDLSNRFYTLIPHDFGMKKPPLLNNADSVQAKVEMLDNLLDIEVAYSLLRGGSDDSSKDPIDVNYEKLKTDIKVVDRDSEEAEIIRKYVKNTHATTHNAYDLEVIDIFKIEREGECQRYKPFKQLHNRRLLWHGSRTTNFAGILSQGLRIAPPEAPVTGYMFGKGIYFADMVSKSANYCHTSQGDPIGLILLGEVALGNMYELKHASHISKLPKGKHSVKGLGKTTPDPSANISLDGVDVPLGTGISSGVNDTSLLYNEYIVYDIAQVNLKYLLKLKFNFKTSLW

| SMILES | IC50 [1] [nM] | IC50 [2] [nM] | IC50 [3] [M] | EC50 [4] [M] |
| --- | --- | --- | --- | --- |
| Nc1ncc(C2CCN(C(=O)CCCc3nn4cccc4c(=O)[nH]3)CC2)cc1-c1ncccn1 [Compound C139, 2-[4-(6-Amino-5-pyrimidin-2-yl-3′,4′,5′,6′-tetrahydro-2′H-[3,4′]bipyridinyl-1′-yl)-4-oxo-butyl]-3H-pyrrolo[2,1-f][1,2,4]triazin-4-one] | 3200 | 0.23 | 2.6e-10 | 3.4e-09 |
| COc1ccc(C(=O)C2CCN(C(=O)CCCc3nc4c(C)scc4c(=O)[nH]3)CC2)cc1F [Compound C113, 2-{4-[4-(3-Fluoro-4-methoxy-benzoyl)-piperidin-1-yl]-4-oxo-butyl}-7-methyl-3H-thieno[3,4-d]pyrimidin-4-one] | 29000 | 0.38 | 2.4e-10 | 2.6e-09 |
| Cc1ccc2c(=O)[nH]c(CCCC(=O)N3CCC(C(=O)c4ccc(C(C)(C)O)cc4)CC3)nn12 [Compound C155, 2-(4-{4-[4-(1-Hydroxy-1-methyl-ethyl)-benzoyl]-piperidin-1-yl}-4-oxo-butyl)-7-methyl-3H-pyrrolo[2,1-f][1,2,4]triazin-4-one] | 600 | 0.57 | 3.8e-10 | 1.6e-08 |
| O=C(c1ccc(F)cc1)C1CCN(C(=O)CCCc2nn3cc(F)cc3c(=O)[nH]2)CC1 [Compound C175, 6-Fluoro-2-{4-[4-(4-fluoro-benzoyl)-piperidin-1-yl]-4-oxo-butyl}-3H-pyrrolo[2,1-f][1,2,4]triazin-4-one] | 4900 | 0.47 | 8.1e-10 | 3.7e-08 |
| Cc1ncc2c(=O)[nH]c(CCCC(=O)N3CCC(C(=O)c4cnn(C)c4)CC3)cn12 [Compound C105, 3-Methyl-6-{4-[4-(1-methyl-1H-pyrazole-4-carbonyl)-piperidin-1-yl]-4-oxo-butyl}-7H-imidazo[1,5-a]pyrazin-8-one] | 29000 | 0.43 | 5.7e-10 | 3.9e-07 |
| Cc1cc2c(=O)[nH]c(CCCC(=O)N3CCC(C(=O)c4ccc(C(C)(C)O)cc4)CC3)nn2c1 [Compound C166, 2-(4-{4-[4-(1-Hydroxy-1-methyl-ethyl)-benzoyl]-piperidin-1-yl}-4-oxo-butyl)-6-methyl-3H-pyrrolo[2,1-f][1,2,4]triazin-4-one] | 1400 | 12 | 1.7e-08 | 1.8e-07 |
| Cc1cc2c(=O)[nH]c(CCCC(=O)N3CCC(C(=O)c4cnn(C)c4)CC3)nn2c1 [Compound C168, 6-Methyl-2-{4-[4-(1-methyl-1H-pyrazole-4-carbonyl)-piperidin-1-yl]-4-oxo-butyl}-3H-pyrrolo[2,1-f][1,2,4]triazin-4-one] | 5800 | 1 | 3.5e-09 | 3.4e-08 |
| Nc1ncc(C2CCN(C(=O)CCCc3nc4c(c(=O)[nH]3)COCC4)CC2)cc1-c1ncccn1 [Compound C195, 2-[4-(6-Amino-5-pyrimidin-2-yl-3′,4′,5′,6′-tetrahydro-2′H-[3,4′]bipyridinyl-1′-yl)-4-oxo-butyl]-3,5,7,8-tetrahydro-pyrano[4,3-d]pyrimidin-4-one] | 3300 | 2.1 | 6.8e-10 | 3.5e-08 |
| COc1ccc(C(=O)C2CCN(C(=O)CCCc3nc4c(c(=O)[nH]3)CCCC4)CC2)cc1 [Compound C227, 2-{4-[4-(4-Methoxy-benzoyl)-piperidin-1-yl]-4-oxo-butyl}-5,6,7,8-tetrahydro-3H-quinazolin-4-one] | 410 | 0.66 | 4.2e-10 | 3.7e-09 |
| N#Cc1cc(C2CCN(C(=O)CCCc3nc4c(c(=O)[nH]3)COCC4)CC2)cnc1N [Compound C194, 6-Amino-1′-[4-(4-oxo-3,5,7,8-tetrahydro-4H-pyrano[4,3-d]pyrimidin-2-yl)-butyryl]-1′,2′,3′,4′,5′,6′-hexahydro-[3,4′]bipyridinyl-5-carbonitrile] | 4900 | 15 | 4.5e-09 | 3.1e-06 |
| COc1ccc(C(=O)C2CCN(C(=O)CCCc3nn4c(C)ccc4c(=O)[nH]3)CC2)cc1F [Compound C147, 2-{4-[4-(3-Fluoro-4-methoxy-benzoyl)-piperidin-1-yl]-4-oxo-butyl}-7-methyl-3H-pyrrolo[2,1-f][1,2,4]triazin-4-one] | 370 | < 0.1 | < 1e-10 | 8.1e-10 |
| Cc1ccc2c(=O)[nH]c(CCCC(=O)N3CCC(C(=O)c4ccc(F)cc4)CC3)nn12 [Compound C153, 2-{4-[4-(4-Fluoro-benzoyl)-piperidin-1-yl]-4-oxo-butyl}-7-methyl-3H-pyrrolo[2,1-f][1,2,4]triazin-4-one] | 2000 | 0.17 | 1.6e-10 | 1.7e-09 |
| COc1ccc(C(=O)C2CCN(C(=O)CCCc3nc4c(C)csc4c(=O)[nH]3)CC2)cn1 [Compound C126, 2-{4-[4-(6-Methoxypyridine-3-carbonyl)-1-piperidyl]-4-oxo-butyl}-7-methyl-3H-thieno[3,2-d]pyrimidin-4-one] | 560 | 0.23 | 1.6e-10 | 1.3e-08 |
| CCn1cc(C(=O)C2CCN(C(=O)CCCc3nc4c(C)scc4c(=O)[nH]3)CC2)cn1 [Compound C216, 2-{4-[4-(1-Ethyl-1H-pyrazole-4-carbonyl)-piperidin-1-yl]-4-oxo-butyl}-7-methyl-3H-thieno[3,4-d]pyrimidin-4-one] | 1500 | 2.5 | 1.3e-09 | 5.2e-08 |
| COc1ccc(C(=O)C2CCN(C(=O)CCCc3cn4c(C)ccc4c(=O)[nH]3)CC2)cc1C [Compound C3, 3-{4-[4-(4-Methoxy-3-methyl-benzoyl)-piperidin-1-yl]-4-oxo-butyl}-6-methyl-2H-pyrrolo[1,2-a]pyrazin-1-one] | 820 | 0.14 | 1.7e-10 | 2.9e-10 |
| N#Cc1ccc(OC2CCN(C(=O)CCCc3nn4cccc4c(=O)[nH]3)CC2)cc1 [Compound C141, 4-{1-[4-(4-Oxo-3,4-dihydro-pyrrolo[2,1-f][1,2,4]triazin-2-yl)-butyryl]-piperidin-4-yloxy}-benzonitrile] | 2600 | 100 | 6.5e-08 | 6.8e-07 |
| COc1ccc(C(=O)C2CCN(C(=O)CCCc3nc4c(C)csc4c(=O)[nH]3)CC2)cc1C [Compound C132, 2-{4-[4-(4-Methoxy-3-methyl-benzoyl)-1-piperidyl]-4-oxo-butyl}-7-methyl-3H-thieno[3,2-d]pyrimidin-4-one] | 440 | < 0.1 | 1.1e-10 | 7.7e-10 |
| Cn1cc(C(=O)C2CCN(C(=O)CCCc3nc4c(c(=O)[nH]3)CCCC4)CC2)cn1 [Compound C230, 2-{4-[4-(1-Methyl-1H-pyrazole-4-carbonyl)-piperidin-1-yl]-4-oxo-butyl}-5,6,7,8-tetrahydro-3H-quinazolin-4-one] | 1800 | 5.1 | 2.1e-09 | 4.7e-08 |
| CC(C)(O)c1ccc(C(=O)C2CCN(C(=O)CCCc3nn4cc(F)cc4c(=O)[nH]3)CC2)cc1 [Compound C177, 6-Fluoro-2-(4-{4-[4-(1-hydroxy-1-methyl-ethyl)-benzoyl]-piperidin-1-yl}-4-oxo-butyl)-3H-pyrrolo[2,1-f][1,2,4]triazin-4-one] | 8000 | 7.1 | 4.8e-09 | 6.7e-08 |
| N#Cc1ccc(OC2CCN(C(=O)CCCc3nn4cc(F)cc4c(=O)[nH]3)CC2)cc1 [Compound C174, 4-{1-[4-(6-Fluoro-4-oxo-3,4-dihydro-pyrrolo[2,1-f][1,2,4]triazin-2-yl)-butyryl]-piperidin-4-yloxy}-benzonitrile] | 270 | 64 | 4.9e-08 | 7.8e-07 |
| Cc1ccc2c(=O)[nH]c(CCCC(=O)N3CCC(C(=O)c4cnn(C)c4)CC3)cn12 [Compound C62, 6-Methyl-3-{4-[4-(1-methyl-1H-pyrazole-4-carbonyl)-piperidin-1-yl]-4-oxo-butyl}-2H-pyrrolo[1,2-a]pyrazin-1-one] | 800 | 0.16 | 1.2e-10 | 3.5e-09 |
| Cc1scc2c(=O)[nH]c(CCCC(=O)N3CCC(C(=O)c4ccc(F)cc4)CC3)nc12 [Compound C119, 2-{4-[4-(4-Fluoro-benzoyl)-piperidin-1-yl]-4-oxo-butyl}-7-methyl-3H-thieno[3,4-d]pyrimidin-4-one] | 850 | 0.9 | 6.2e-10 | 3.3e-08 |
| O=C(CCCc1nn2cc(F)cc2c(=O)[nH]1)N1CCC(c2nnc(-c3ccccc3)o2)CC1 [Compound C173, 6-Fluoro-2-{4-oxo-4-[4-(5-phenyl-[1,3,4]oxadiazol-2-yl)-piperidin-1-yl]-butyl}-3H-pyrrolo[2,1-f][1,2,4]triazin-4-one] | 3200 | 15 | 1.4e-08 | 8.5e-08 |
| COc1ccc(C(=O)C2CCN(C(=O)CCCc3nn4cc(F)cc4c(=O)[nH]3)CC2)cn1 [Compound C170, 6-Fluoro-2-{4-[4-(6-methoxy-pyridine-3-carbonyl)-piperidin-1-yl]-4-oxo-butyl}-3H-pyrrolo[2,1-f][1,2,4]triazin-4-one] | 2800 | 0.67 | 9.9e-10 | 1.9e-08 |
